# Laboratory results reported in ChEMBL document CHEMBL3286257, “Development of second generation EP2 antagonists with high selectivity” (Eur J Med Chem, 2014).
# How the values were obtained:
# [1] = target: Prostaglandin E2 receptor EP2 subtype (Homo sapiens) (UniProt P43116); assay: Antagonist activity at EP2 receptor (unknown origin) expressed in rat C6 cells assessed as inhibition of PGE2-induced response; type: cell-based
# [2] = target: Prostaglandin E2 receptor EP4 subtype (Homo sapiens) (UniProt P35408); assay: Antagonist activity at EP4 receptor (unknown origin) expressed in rat C6 cells assessed as inhibition of PGE2-induced response; type: cell-based
# [3] = target: T1, Prostaglandin D2 receptor (Homo sapiens) (UniProt Q13258); assay: Antagonist activity at DP1 receptor (unknown origin) expressed in rat C6 cells by TR-FRET assay; type: cell-based
# T1 sequence (whole entry): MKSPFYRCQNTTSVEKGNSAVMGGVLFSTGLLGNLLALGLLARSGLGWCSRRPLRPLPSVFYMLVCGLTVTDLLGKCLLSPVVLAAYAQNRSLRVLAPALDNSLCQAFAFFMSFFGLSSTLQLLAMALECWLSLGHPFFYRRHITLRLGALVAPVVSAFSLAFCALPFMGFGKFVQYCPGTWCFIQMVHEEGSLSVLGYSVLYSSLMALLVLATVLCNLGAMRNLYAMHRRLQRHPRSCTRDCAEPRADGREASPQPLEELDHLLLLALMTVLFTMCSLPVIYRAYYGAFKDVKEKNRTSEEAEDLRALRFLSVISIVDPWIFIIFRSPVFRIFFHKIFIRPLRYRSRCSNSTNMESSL
# [4] = target: Prostacyclin receptor (Homo sapiens) (UniProt P43119); assay: Antagonist activity at IP receptor (unknown origin) expressed in rat C6 cells by TR-FRET assay; type: cell-based
# C6 = assay: Cytotoxicity against rat C6 cells; type: cell-based; conditions: c6
# EP2 receptor = assay: Therapeutic index, ratio of CC50 for rat C6 cells to KB for EP2 receptor (unknown origin); type: cell-based; conditions: read-out: TI
# [5] = Metabolic stability of the compound in human liver microsomes assessed as compound remaining at 10 uM after 15 mins; type: ADME; conditions: read-out: Stability
# [6] = Metabolic stability of the compound in human liver microsomes assessed as compound remaining at 10 uM after 30 mins; type: ADME; conditions: read-out: Stability
# [7] = Metabolic stability of the compound in human liver microsomes assessed as compound remaining at 10 uM after 60 mins; type: ADME; conditions: read-out: Stability
# [8] = Metabolic stability of the compound in mouse liver microsomes assessed as compound remaining at 10 uM after 15 mins; type: ADME; conditions: read-out: Stability
# [9] = Metabolic stability of the compound in mouse liver microsomes assessed as compound remaining at 10 uM after 30 mins; type: ADME; conditions: read-out: Stability
# [10] = Metabolic stability of the compound in mouse liver microsomes assessed as compound remaining at 10 uM after 60 mins; type: ADME; conditions: read-out: Stability
# [11] = Aqueous solubility of the compound by nephelometry method; type: physicochemical; conditions: buffer
# Homo sapiens [12] = organism: Homo sapiens; assay: Selectivity index, ratio of KB for EP4 receptor (unknown origin) to KB for EP2 receptor (unknown origin)
# Homo sapiens [13] = organism: Homo sapiens; assay: Selectivity index, ratio of KB for DP1 receptor (unknown origin) to KB for EP2 receptor (unknown origin)
# Homo sapiens [14] = organism: Homo sapiens; assay: Selectivity index, ratio of KB for IP receptor (unknown origin) to KB for EP2 receptor (unknown origin)
# Chain of Prostacyclin receptor (Homo sapiens) (P43119 whole entry): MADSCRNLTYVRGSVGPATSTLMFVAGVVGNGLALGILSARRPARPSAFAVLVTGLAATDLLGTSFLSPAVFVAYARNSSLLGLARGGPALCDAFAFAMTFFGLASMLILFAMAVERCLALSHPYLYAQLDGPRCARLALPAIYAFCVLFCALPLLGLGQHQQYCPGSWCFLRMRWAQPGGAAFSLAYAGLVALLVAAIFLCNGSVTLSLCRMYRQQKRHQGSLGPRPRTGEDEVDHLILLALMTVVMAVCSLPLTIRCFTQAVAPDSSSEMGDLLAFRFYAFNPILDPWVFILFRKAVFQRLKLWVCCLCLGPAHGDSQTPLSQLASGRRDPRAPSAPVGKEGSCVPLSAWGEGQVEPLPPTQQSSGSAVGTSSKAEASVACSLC
# Chain of Prostaglandin E2 receptor EP2 subtype (Homo sapiens) (P43116 whole entry): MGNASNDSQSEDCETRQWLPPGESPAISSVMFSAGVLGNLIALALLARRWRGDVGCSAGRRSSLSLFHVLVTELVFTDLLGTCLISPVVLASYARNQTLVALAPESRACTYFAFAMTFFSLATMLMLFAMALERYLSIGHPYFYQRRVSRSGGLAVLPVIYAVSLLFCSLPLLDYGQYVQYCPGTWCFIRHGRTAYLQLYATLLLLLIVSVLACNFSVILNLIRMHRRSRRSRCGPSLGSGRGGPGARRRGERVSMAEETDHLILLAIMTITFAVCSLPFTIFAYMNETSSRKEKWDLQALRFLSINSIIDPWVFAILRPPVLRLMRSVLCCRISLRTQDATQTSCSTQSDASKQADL
# Chain of Prostaglandin E2 receptor EP4 subtype (Homo sapiens) (P35408 whole entry): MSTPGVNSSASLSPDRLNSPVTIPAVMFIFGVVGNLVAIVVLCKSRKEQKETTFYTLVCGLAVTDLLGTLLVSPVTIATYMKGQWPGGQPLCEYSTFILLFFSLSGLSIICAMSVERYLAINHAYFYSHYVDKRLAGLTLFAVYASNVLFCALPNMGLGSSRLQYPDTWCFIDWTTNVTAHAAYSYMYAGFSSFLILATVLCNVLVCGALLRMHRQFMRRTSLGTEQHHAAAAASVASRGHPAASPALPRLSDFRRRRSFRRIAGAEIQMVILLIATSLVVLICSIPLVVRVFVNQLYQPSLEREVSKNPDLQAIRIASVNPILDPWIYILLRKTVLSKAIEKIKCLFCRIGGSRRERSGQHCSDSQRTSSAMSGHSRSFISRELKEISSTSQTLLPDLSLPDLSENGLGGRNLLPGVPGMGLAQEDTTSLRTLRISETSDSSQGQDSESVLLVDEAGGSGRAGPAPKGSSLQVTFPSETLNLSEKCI
SMILES,Kb [1] [nM],also measured
Cc1cc2cc(F)ccc2n1CCNC(=O)c1ccc(N2CCN(C)CC2)c(F)c1,62.2,
Cc1cc2ccccc2n1CCNC(=O)c1ccc(N2CCNCC2)cc1,410,
Cc1cc2ccccc2n1CCNC(=O)c1ccc(CN2CCN(C)CC2)cc1,> 1000,
CCN(CC)C(=O)c1ccc(C(=O)NCCn2c(C)cc3ccccc32)cc1,800,
Cc1cc2ccccc2n1CCNC(=O)c1ccc(-n2nn[nH]c2=S)cc1,32.2,
Cc1[nH]c2ccccc2c1CCNC(=O)c1ccc(N2CCOCC2)cc1,,"Kb [2]: 75.6 µM; Kb [3]: 7.79 µM; Kb [4]: 85 µM; CC50 (C6): 311 µM; selectivity ratio (EP2 receptor): 10900; remaining at […], 10 µM [5]: 75%; remaining at 0.5 h, 10 µM [6]: 58%; remaining at 1 h, 10 µM [7]: 40%; remaining at […], 10 µM [8]: 37%; remaining at 0.5 h, 10 µM [9]: 10%; remaining at 1 h, 10 µM [10]: 0.5%; solubility kinetic [11]: < 25 µM"
Cc1[nH]c2ccccc2c1CCNC(=O)c1ccc(N2CCCCC2)cc1,19.8,
CCN(CC)c1ccc(C(=O)NCCCn2c(C)cc3ccccc32)cc1,> 1000,
Cc1cc2ccccc2n1CCNC(=O)c1ccc(N2CCN(C)CC2)cc1,64,
Cc1cc2ccccc2n1CCNC(=O)c1ccc(C2CCCNC2)cc1 (stereo unspecified),> 1000,
CC(=O)N1CCN(c2ccc(C(=O)NCCn3c(C)cc4ccccc43)cc2)CC1,50.2,
Cc1cc2ccccc2n1CCNC(=O)c1cnc(N2CCOCC2)nc1,76.5,
O=C(NCCn1c(C(F)(F)F)cc2ccccc21)c1ccc(N2CCOCC2)cc1,120,
Cc1cc2ccccc2n1CCNC(=O)C1CCC(=O)N1 (stereo unspecified),> 1000,
Cc1cc2ccccc2n1CCNC(=O)c1ccc(-n2cnnn2)cc1,42.2,"remaining at […], 10 µM [5]: 75%; remaining at 0.5 h, 10 µM [6]: 54%; remaining at 1 h, 10 µM [7]: 26%; remaining at […], 10 µM [8]: 50%; remaining at 0.5 h, 10 µM [9]: 26%; remaining at 1 h, 10 µM [10]: 7.5%; solubility kinetic [11]: < 25 µM"
CC1=Nc2ccccc2C1CCNC(=O)c1cnc(N2CCOCC2)nc1 (stereo unspecified),280,
Cc1cc2ccccc2n1CCNC(=O)c1ccc(C2CCCN(C(=O)OC(C)(C)C)C2)cc1 (stereo unspecified),95,
CCN(CC)c1ccc(C(=O)NCCn2c(C(F)(F)F)cc3ccccc32)cc1,150,
Cc1cc2ccccc2n1C1CCCN(C(=O)c2ccc(N3CCOCC3)cc2)C1 (stereo unspecified),> 1000,
Cc1cc2cc(F)ccc2n1CCNC(=O)c1ccc(N2CCOCC2)cc1,14.9,
Cc1cc2ccccc2n1CCNC(=O)c1ccc(CN2CCOCC2)cc1,970,

SMILES,Kb [1] [nM],also measured
CCN(CC)c1ccc(C(=O)NCCn2c(C)nc3ccccc32)cc1,190,
Cc1cc2ccccc2n1CCNC(=O)c1ccc(NC(=O)c2ccccc2F)cc1,51,
Cc1cc2ccccc2n1CCNC(=O)c1cccc(N2CCOCC2)c1,> 1000,
CCN(CC)C(=O)c1ccc(C(=O)NCCc2c(C)[nH]c3ccccc23)cc1,> 1000,
Cc1[nH]c2ccccc2c1CCNC(=O)c1ccc(N2CCOCC2)c(F)c1,66,
CC(=O)Nc1ccc(C(=O)NCCc2c(C)[nH]c3ccccc23)cc1,138,
Cc1[nH]c2ccccc2c1CCNC(=O)c1ccc(N2CCN(C)CC2)cc1,135,
CCOC(=O)C1CCN(c2ccc(C(=O)NCCn3c(C)cc4ccccc43)cc2)CC1,500,
CCN(CC)c1ccc(C(=O)NCCn2cnc3ccccc32)cc1,> 1000,
Cc1cc2ccccc2n1CCNC(=O)c1ccc(C2CCCCC2)cc1,120,
Cc1cc2ccccc2n1CCNC(=O)C1CCC(c2ncccn2)CC1 (stereo unspecified),380,
Cc1cc2ccccc2n1CCNC(=O)c1cccc(N2CCN(C)CC2)c1,770,
Cc1cc2ccccc2n1CCNC(=O)c1ccc(N2CCC(C)CC2)cc1,30.3,
CCNc1ncc(C(=O)NCCC2C(C)=Nc3ccccc32)cn1 (stereo unspecified),155,
CCN(CC)c1ccc(C(=O)OCCn2c(C)cc3ccccc32)cc1,> 1000,
O=C(NC1CCc2[nH]c3ccccc3c2C1)c1ccc(N2CCOCC2)cc1 (stereo unspecified),> 1000,
Cc1[nH]c2ccccc2c1CCNC(=O)c1ccc(N(C)C)cc1,10.8,"Kb [2]: 16.4 µM; Kb [3]: 3.61 µM; Kb [4]: 63.1 µM; CC50 (C6): 320 µM; remaining at […], 10 µM [5]: 34%; remaining at 0.5 h, 10 µM [6]: 17%; remaining at 1 h, 10 µM [7]: 4%; remaining at […], 10 µM [8]: < 1%; remaining at 0.5 h, 10 µM [9]: 0%; remaining at 1 h, 10 µM [10]: 0%; solubility kinetic [11]: < 25 µM"
Cc1cc2ccccc2n1CCNC(=O)c1ccc(N2CCCN(C)CC2)cc1,148,
Cc1cc2ccccc2n1CCNC(=O)c1ccc(OC2CCNCC2)cc1,> 1000,
Cc1cc2ccccc2n1CCNC(=O)c1ccc(N2CCN(C)CC2)c(F)c1,45,Kb [2]: 4.76 µM; Ratio (Homo sapiens [12]): 106; Kb [3]: 0.98 µM; Ratio (Homo sapiens [13]): 22; Kb [4]: 64 µM; Ratio (Homo sapiens [14]): 1420; CC50 (C6): 300 µM; selectivity ratio (EP2 receptor): 6660

# More lines, main results first:
Kb [1] [nM],SMILES,also measured
100,Cc1cc2ccccc2n1CCNC(=O)c1ccc(C(=O)OC(C)(C)C)cc1,
97,CC(=O)Nc1ccc(C(=O)NCCn2c(C)cc3ccccc32)cc1,
> 1000,COc1cc(C(=O)NCCn2c(C)cc3ccccc32)cc(OC)c1OC,
15.5,CCNc1ccc(C(=O)NCCn2c(C)cc3ccccc32)cc1,
175,Cc1cc2ccccc2n1CCNC(=O)c1cnc2ccc(F)cc2c1O,
86.8,COc1ccc(C(=O)NCCn2c(C)cc3ccccc32)cc1F,
18.1,Cc1cc2ccccc2n1CCNC(=O)c1ccc(N(C)C)c(F)c1,
280,Cc1cc2ccccc2n1CCNC(=O)c1ccc(C#N)cc1F,
1220,Cc1cc2ccccc2n1CCNC(=O)c1ccc(CCN)cc1,
20.2,CCNc1ccc(C(=O)NCCn2c(C)cc3ccccc32)cc1C(F)(F)F,
> 1000,Cc1cc2ccccc2n1CCNC(=O)c1cnc(N)nc1,
690,Cc1cc2ccccc2n1CCNC(=O)c1ccc(CN)cc1,
75.6,COc1ccc(C(=O)NCCn2c(C)cc3ccccc32)cc1,
530,CC(=O)Nc1ccc(C(=O)NCCn2c(C)cc3ccccc32)cc1F,
520,Cc1cc2ccccc2n1CCNC(=O)c1cccnc1N,
87.5,Cc1cc2ccccc2n1CCNC(=O)c1ccc2[nH]nnc2c1,
4.6,CCN(CC)c1ccc(C(=O)NCCn2c(C)cc3ccccc32)cc1F,
20.9,Cc1cc2ccccc2n1CCNC(=O)c1ccc2c(c1)n(C)c(=O)n2C,Kb [2]: 36.1 µM; Ratio (Homo sapiens [12]): 1730; Kb [3]: 6.29 µM; Ratio (Homo sapiens [13]): 300; Kb [4]: 25.2 µM; Ratio (Homo sapiens [14]): 1200; CC50 (C6): 154 µM; selectivity ratio (EP2 receptor): 7370
> 1000,Cc1cc2ccccc2n1CCNC(=O)c1ccc(NC(=N)N)cc1,

Kb [1] [nM],SMILES,also measured
1.6,Cc1cc2ccccc2n1CCNC(=O)c1cnc(Nc2ccccc2)nc1,"remaining at […], 10 µM [5]: 88%; remaining at 0.5 h, 10 µM [6]: 67%; remaining at 1 h, 10 µM [7]: 50%; remaining at […], 10 µM [8]: 71%; remaining at 0.5 h, 10 µM [9]: 59%; remaining at 1 h, 10 µM [10]: 35%; solubility kinetic [11]: < 25 µM"
9.8,Cc1cc2ccccc2n1CCNC(=O)c1ccc(N(C)C)cc1,"Kb [2]: 51 µM; Kb [3]: 6.43 µM; Kb [4]: 4.7 µM; CC50 (C6): 310 µM; remaining at […], 10 µM [5]: 27%; remaining at 0.5 h, 10 µM [6]: 7%; remaining at 1 h, 10 µM [7]: < 1%; remaining at […], 10 µM [8]: < 1%; remaining at 0.5 h, 10 µM [9]: < 1%; remaining at 1 h, 10 µM [10]: < 1%; solubility kinetic [11]: < 25 µM"
310,CCN(CC)c1ccc(C(=O)NCCn2c(C)cc3ccccc32)cc1C(F)(F)F,
140,Cc1cc2ccccc2n1CCNC(=O)c1ccc(C#N)c(F)c1,
84,Cc1cc2ccccc2n1CCNC(=O)c1ccc(CNC(=O)OC(C)(C)C)cc1,
> 1000,Cc1cc2ccccc2n1CCNC(=O)c1ccc(C(=O)N(C)C)cc1,
210,Cc1cc2ccccc2n1CCNC(=O)c1ccc(N)cc1,
486,Cc1cc2ccccc2n1CCNC(=O)c1ccc(S(N)(=O)=O)cc1,
> 1000,Cc1cc2ccccc2n1CCNC(=O)c1ccc(O)cc1,
57.8,CCNc1ncc(C(=O)NCCn2c(C)cc3ccccc32)cn1,
84.1,Cc1cc2ccccc2n1CCNC(=O)c1ccc2[nH]c(=S)[nH]c(=O)c2c1,
22.3,COc1ccc(C(=O)NCCn2c(C)cc3ccccc32)cc1OC,
130,Cc1cc2ccccc2n1CCNC(=O)c1nc2cc(F)ccc2[nH]1,
> 1000,Cc1cc2ccccc2n1CCNC(=O)c1cccc(S(N)(=O)=O)c1,
140,Cc1cc2ccccc2n1CCNC(=O)c1ccc(C#N)cc1,
150,Cc1cc2ccccc2n1CCNC(=O)c1ccc(C(N)=O)cc1,
61.2,CCN(CC)c1ccc(C(=O)NCCn2c(C)cc3ccccc32)cc1OC,
150,CC(=O)Oc1ccc(C(=O)NCCn2c(C)cc3ccccc32)cc1,
